Measured values published in US20140309244A1, “NOVEL MICROBIOCIDES” (SYNGENTA PARTICIPATIONS AG, priority 2010, published 2014).

How the values were obtained:
[1] = test system: Thanatephorus cucumeris (Rhizoctonia solani); assay: Thanatephorus cucumeris (Rhizoctonia solani) / liquid culture (foot rot, damping-off); assay type: cell-based; conditions: liquid culture of mycelia fragments, PDB potato dextrose broth, 96-well plate, 24° C., 3-4 days after application, read-out: control of Thanatephorus cucumeris (inhibition of growth, photometric)
Procedure: Thanatephorus cucumeris (Rhizoctonia solani)/Liquid Culture (Foot Rot, Damping-Off): Mycelia fragments of a newly grown liquid culture of the fungus are directly mixed into nutrient broth (PDB potato dextrose broth). After placing a DMSO solution of the test compounds into a 96-well microtiter plate at an application rate of 200 ppm, the nutrient broth containing the fungal material was added. The test plates were incubated at 24° C. and the inhibition of growth was determined photometrically 3-4 days after application.

[2] = test system: Botryotinia fuckeliana (Botrytis cinerea); assay: Botryotinia fuckeliana (Botrytis cinerea) / liquid culture (gray mould); assay type: cell-based; conditions: Vogels broth, 96-well plate, 24° C., 3-4 days after application, read-out: control of Botryotinia fuckeliana (inhibition of growth, photometric)
[3] = test system: Mycosphaerella arachidis (Cercospora arachidicola); assay: Mycosphaerella arachidis (Cercospora arachidicola) / liquid culture (early leaf spot); assay type: cell-based; conditions: PDB potato dextrose broth, 96-well plate, 24° C., 4-5 days after application, read-out: control of Mycosphaerella arachidis (inhibition of growth, photometric)
[4] = test system: Monographella nivalis (Microdochium nivale); assay: Monographella nivalis (Microdochium nivale) / liquid culture (foot rot cereals); assay type: cell-based; conditions: PDB potato dextrose broth, 96-well plate, 24° C., 4-5 days after application, read-out: control of Monographella nivalis (inhibition of growth, photometric)
Procedure: Monographella nivalis (Microdochium nivale)/Liquid Culture (Foot Rot Cereals): Conidia of the fungus from cryogenic storage were directly mixed into nutrient broth (PDB potato dextrose broth). After placing a DMSO solution of test compound into a 96-well microtiter plate at an application rate of 200 ppm, the nutrient broth containing the fungal spores was added. The test plates were incubated at 24° C. and the inhibition of growth was determined photometrically 4-5 days after application. […].103

[5] = test system: Glomerella lagenarium (Colletotrichum lagenarium); assay: Glomerella lagenarium (Colletotrichum lagenarium) / liquid culture (anthracnose); assay type: cell-based; conditions: Colletotrichum orbiculare, PDB potato dextrose broth, 96-well plate, 24° C., 3-4 days after application, read-out: control of Glomerella lagenarium (inhibition of growth, photometric)
[6] = test system: Mycosphaerella graminicola (Septoria tritici); assay: Mycosphaerella graminicola (Septoria tritici) / liquid culture (Septoria blotch); assay type: cell-based; conditions: Zymoseptoria tritici, PDB potato dextrose broth, 96-well plate, 24° C., 4-5 days after application, read-out: control of Mycosphaerella graminicola (inhibition of growth, photometric)
[7] = test system: Phaeosphaeria nodorum (Septoria nodorum); assay: Phaeosphaeria nodorum (Septoria nodorum) / wheat / leaf disc preventative (glume blotch); assay type: in vivo; conditions: Parastagonospora nodorum, foliar, wheat cv Kanzler leaf segments, inoculated 2 days after application, assessed 5-7 days after application, read-out: control of Phaeosphaeria nodorum (percent disease control compared to untreated)
[8] = test system: Puccinia recondita f. sp. tritici; assay: Puccinia recondita f. sp. tritici / wheat / leaf disc preventative (brown rust); assay type: in vivo; conditions: foliar, wheat cv Kanzler leaf segments, inoculated 1 day after application, assessed 7-9 days after application, read-out: control of Puccinia recondita f. sp. tritici (percent disease control compared to untreated)
Procedure: Puccinia recondita f. sp. tritici/Wheat/Leaf Disc Preventative (Brown Rust) Wheat leaf segments cultivated variety (cv) Kanzler were placed on agar in 24-well plates and sprayed with formulated test compound diluted in water at an application rate of 200 ppm. The leaf disks were inoculated with a spore suspension of the fungus 1 day after application. The inoculated leaf segments were incubated at 19° C. and 75% relative humidity under a light regime of 12/12 h (light/dark) in a climate cabinet and the activity of a compound was assessed as percent disease control compared to untreated when an appropriate level of disease damage appears in untreated check leaf segments (7-9 days after application). […].103

[9] = test system: Puccinia recondita f. sp. tritici; assay: Puccinia recondita f. sp. tritici / wheat / leaf disc curative (brown rust); assay type: in vivo; conditions: foliar, wheat cv Kanzler leaf segments, applied 1 day after inoculation, assessed 6-8 days after application, read-out: control of Puccinia recondita f. sp. tritici (percent disease control compared to untreated)
Procedure: Puccinia recondita f. sp. tritici/Wheat/Leaf Disc Curative (Brown Rust): Wheat leaf segments cv Kanzler were placed on agar in 24-well plates. The leaf segments were inoculated with a spore suspension of the fungus. The plates were stored in darkness at 19° C. and 75% relative humidity. The formulated test compound diluted in water was applied at an application rate of 200 ppm 1 day after inoculation.

[10] = test system: Pyrenophora teres; assay: Pyrenophora teres / barley / leaf disc preventative (net blotch); assay type: in vivo; conditions: foliar, barley cv Hasso leaf segments, inoculated two days after application, assessed 5-7 days after application, read-out: control of Pyrenophora teres (disease control compared to untreated)
[11] = test system: Blumeria graminis f. sp. tritici (Erysiphe graminis f. sp. tritici); assay: Blumeria graminis f. sp. tritici (Erysiphe graminis f. sp. tritici) / wheat / leaf disc preventative (powdery mildew on wheat); assay type: in vivo; conditions: foliar, wheat cv. Kanzler leaf segments, inoculated 1 day after application, assessed 6-8 days after application, read-out: control of Blumeria graminis (percent disease control compared to untreated)
[12] = test system: Gaeumannomyces graminis; assay: Gaeumannomyces graminis / liquid culture (take-all of cereals); assay type: cell-based; conditions: liquid culture of mycelial fragments, PDB potato dextrose broth, 96-well plate, 24° C., 4-5 days after application, read-out: control of Gaeumannomyces graminis (inhibition of growth, photometric)
[13] = test system: Magnaporthe grisea (Pyricularia oryzae); assay: whole plant or invertebrate; assay type: in vivo; conditions: foliar, read-out: control of Magnaporthe grisea (percent disease control compared to untreated)

CCC(CO/N=C(\C)c1cccc(C)n1)Cc1cccc(/C(C)=N/OC)n1 (stereo not drawn) [P.04]
≥ 80%: inhibition at 200 ppm [1] | inhibition at 200 ppm [2] | inhibition at 200 ppm [3] | inhibition at 200 ppm [4] | inhibition at 200 ppm [5] | inhibition at 200 ppm [6] | pest or weed control at 200 ppm [7] | pest or weed control at 200 ppm [8] | pest or weed control at 200 ppm [9] | pest or weed control at 200 ppm [10] | pest or weed control at 200 ppm [11] | inhibition at 200 ppm [12]

CO/N=C(\C)c1cccc(CCCO/N=C(\C)c2cc(C)cc(C)n2)n1 [P.10]
≥ 80%: inhibition at 200 ppm [1] | inhibition at 200 ppm [2] | inhibition at 200 ppm [3] | inhibition at 200 ppm [4] | inhibition at 200 ppm [5] | inhibition at 200 ppm [6] | pest or weed control at 200 ppm [7] | pest or weed control at 200 ppm [8] | pest or weed control at 200 ppm [9] | pest or weed control at 200 ppm [10] | pest or weed control at 200 ppm [11] | inhibition at 200 ppm [12]

CO/N=C(\C)c1cccc(CCCO/N=C(\C)c2cccc(C)n2)n1 [P.12]
≥ 80%: inhibition at 200 ppm [1] | inhibition at 200 ppm [2] | inhibition at 200 ppm [3] | inhibition at 200 ppm [4] | inhibition at 200 ppm [5] | inhibition at 200 ppm [6] | pest or weed control at 200 ppm [7] | pest or weed control at 200 ppm [8] | pest or weed control at 200 ppm [9] | pest or weed control at 200 ppm [10] | pest or weed control at 200 ppm [11] | inhibition at 200 ppm [12]

CON=C(c1ccccc1)c1cccc(CCCO/N=C(\C)c2cccc(C)n2)n1 [P.24]
≥ 80%: inhibition at 200 ppm [1] | inhibition at 200 ppm [2] | inhibition at 200 ppm [3] | inhibition at 200 ppm [4] | inhibition at 200 ppm [5] | inhibition at 200 ppm [6] | pest or weed control at 200 ppm [7] | pest or weed control at 200 ppm [8] | pest or weed control at 200 ppm [9] | pest or weed control at 200 ppm [10] | pest or weed control at 200 ppm [11] | inhibition at 200 ppm [12]

CO/N=C(\C)c1cccc(CCCO/N=C(\C)c2nc(C)cc(C)n2)n1 [P.62, 1-(6-(3-[1-(4,6-dimethyl-pyrimidin-2-yl)-eth-(E)-ylideneaminooxy]-propyl)-pyridin-2-yl)-ethanone O-methyl oxime]
≥ 80%: inhibition at 200 ppm [1] | inhibition at 200 ppm [2] | inhibition at 200 ppm [3] | inhibition at 200 ppm [6] | pest or weed control at 200 ppm [9] | pest or weed control at 200 ppm [13]

CO/N=C(\C)c1cccc(CCCO/N=C2\CCCc3c2nc2ncccc2c3C)n1 [P.72]
≥ 80%: inhibition at 200 ppm [2] | inhibition at 200 ppm [5] | inhibition at 200 ppm [6] | pest or weed control at 200 ppm [7] | pest or weed control at 200 ppm [8] | pest or weed control at 200 ppm [9] | pest or weed control at 200 ppm [13] | pest or weed control at 200 ppm [10] | pest or weed control at 200 ppm [11]

C=CCOCCCc1cccc(/C(C)=N/OCCCc2cccc(/C(C)=N/OC)n2)n1 [P.74]
≥ 80%: inhibition at 200 ppm [2] | inhibition at 200 ppm [3] | inhibition at 200 ppm [4] | inhibition at 200 ppm [6] | pest or weed control at 200 ppm [7] | pest or weed control at 200 ppm [13] | pest or weed control at 200 ppm [10] | pest or weed control at 200 ppm [11] | inhibition at 200 ppm [12]

COCCCc1cccc(/C(C)=N/OCCCc2cccc(/C(C)=N/OC)n2)n1 [P.76]
≥ 80%: inhibition at 200 ppm [2] | inhibition at 200 ppm [3] | inhibition at 200 ppm [4] | inhibition at 200 ppm [5] | inhibition at 200 ppm [6] | pest or weed control at 200 ppm [7] | pest or weed control at 200 ppm [13] | pest or weed control at 200 ppm [10] | inhibition at 200 ppm [12]

CO/N=C(\C)c1cccc(CCCO/N=C2\CCCc3c2nc2cc(OC)c(OC)cc2c3C)n1 [P.82]
≥ 80%: inhibition at 200 ppm [1] | inhibition at 200 ppm [2] | inhibition at 200 ppm [3] | inhibition at 200 ppm [4] | inhibition at 200 ppm [5] | inhibition at 200 ppm [6] | pest or weed control at 200 ppm [7] | pest or weed control at 200 ppm [13] | pest or weed control at 200 ppm [10] | pest or weed control at 200 ppm [11]

CO/N=C(\C)c1cccc(CCCO/N=C2\CCCc3c2nc2ccsc2c3C)n1 [P.88]
≥ 80%: inhibition at 200 ppm [1] | inhibition at 200 ppm [2] | inhibition at 200 ppm [3] | inhibition at 200 ppm [4] | inhibition at 200 ppm [5] | inhibition at 200 ppm [6] | pest or weed control at 200 ppm [7] | pest or weed control at 200 ppm [8] | pest or weed control at 200 ppm [9] | pest or weed control at 200 ppm [13] | pest or weed control at 200 ppm [10] | pest or weed control at 200 ppm [11]

CO/N=C(\C)c1cccc(CCCO/N=C2\CCCc3c2nc2ccc(Cl)cc2c3C)n1 [P.91]
≥ 80%: inhibition at 200 ppm [1] | inhibition at 200 ppm [2] | inhibition at 200 ppm [3] | inhibition at 200 ppm [4] | inhibition at 200 ppm [5] | inhibition at 200 ppm [6] | pest or weed control at 200 ppm [7] | pest or weed control at 200 ppm [8] | pest or weed control at 200 ppm [13] | pest or weed control at 200 ppm [11]

CCc1c2c(nc3ccccc13)/C(=N/OCCCc1cccc(/C(C)=N/OC)n1)CCC2 [P.92]
≥ 80%: inhibition at 200 ppm [1] | inhibition at 200 ppm [2] | inhibition at 200 ppm [3] | inhibition at 200 ppm [4] | inhibition at 200 ppm [5] | inhibition at 200 ppm [6] | pest or weed control at 200 ppm [7] | pest or weed control at 200 ppm [8] | pest or weed control at 200 ppm [9] | pest or weed control at 200 ppm [13] | pest or weed control at 200 ppm [10] | pest or weed control at 200 ppm [11]

CO/N=C(\C)c1cccc(CCCO/N=C2\CCCc3cc4cc(Cl)ccc4nc32)n1 [P.96]
≥ 80%: inhibition at 200 ppm [1] | inhibition at 200 ppm [2] | inhibition at 200 ppm [3] | inhibition at 200 ppm [4] | inhibition at 200 ppm [5] | inhibition at 200 ppm [6] | pest or weed control at 200 ppm [7] | pest or weed control at 200 ppm [13] | pest or weed control at 200 ppm [10] | pest or weed control at 200 ppm [11] | inhibition at 200 ppm [12]

CO/N=C(\C)c1cccc(CCCO/N=C2\CCCc3c2nc2ccccc2c3C2CC2)n1 [P.97]
≥ 80%: inhibition at 200 ppm [2] | inhibition at 200 ppm [3] | inhibition at 200 ppm [4] | inhibition at 200 ppm [5] | inhibition at 200 ppm [6] | pest or weed control at 200 ppm [7] | pest or weed control at 200 ppm [8] | pest or weed control at 200 ppm [9] | pest or weed control at 200 ppm [13] | pest or weed control at 200 ppm [10] | pest or weed control at 200 ppm [11]
